The IC50 is the concentration that inhibits the measured activity by half. Usually EC50 stands for the concentration that produces a half-maximal response.

Read-outs that look alike come from different tables or passages of the source.

For experiment [1], the system named is influenza A virus (A/PR/8/34). The experiment in a line: microbe, parasite or virus in culture. The conditions noted are these: Influenza A virus, PR/8, MDCK, read-out: IC50 (mean all). The experiment is classed as cell-based.
Experiment [2] relates to A/PR/8/34 influenza virus. In words: microbe, parasite or virus in culture. The class given is cell-based. The conditions noted are these: Influenza A virus, PR/8, MDCK, read-out: EC50 (mean all).
Where [3] appears, read: MDCK cells infected with A/PR/8/34, cell protection (CPE).
The mark [4] stands for this setting: MDCK cells infected with A/PR/8/34, bDNA viral RNA.

As to `CNc1ccccc1C(=O)N1CCC[C@H](CNc2nc(-c3c[nH]c4ncc(Cl)cc34)ncc2F)C1` [Compound 112, (R)-(3-((2-(5-chloro-1H-pyrrolo[2,3-b]pyridin-3-yl)-5-fluoropyrimidin-4-ylamino)methyl)piperidin-1-yl)(2-(methylamino)phenyl)methanone], the IC50 in experiment [1] (setting [3]) is below 5 µM. In experiment [2] (setting [4]), the EC50 is below 5 µM.
`COc1ccccc1C(=O)N1CCC[C@H](CNc2nc(-c3c[nH]c4ncc(Cl)cc34)ncc2F)C1` [Compound 113, (R)-(3-((2-(5-chloro-1H-pyrrolo[2,3-b]pyridin-3-yl)-5-fluoropyrimidin-4-ylamino)methyl)piperidin-1-yl)(2-methoxyphenyl)methanone]: the IC50 in experiment [1] (setting [3]) is below 5 µM. In addition, the EC50 in experiment [2] (setting [4]) is below 5 µM.
With `C=CCOC(=O)N1CCC[C@H](CNc2nc(-c3c[nH]c4ncc(Cl)cc34)ncc2F)C1` [Compound 119, (R)-allyl 3-((2-(5-chloro-1H-pyrrolo[2,3-b]pyridin-3-yl)-5-fluoropyrimidin-4-ylamino)methyl)piperidine-1-carboxylate], the IC50 in experiment [1] (setting [3]) was below 5 µM. Further, the EC50 in experiment [2] (setting [4]) is below 5 µM.
Consider `Cc1cc(NC(=O)N2CCC[C@H](CNc3nc(-c4c[nH]c5ncc(Cl)cc45)ncc3F)C2)c(C(F)(F)F)o1` [Compound 120, (R)-3-((2-(5-chloro-1H-pyrrolo[2,3-b]pyridin-3-yl)-5-fluoropyrimidin-4-ylamino)methyl)-N-(5-methyl-2-(trifluoromethyl)furan-3-yl)piperidine-1-carboxamide], for which the IC50 in experiment [1] (setting [3]) was below 5 µM. Besides, the EC50 in experiment [2] (setting [4]) is below 5 µM.
Turning to `C#CCOC(=O)N1CCC[C@H](CNc2nc(-c3c[nH]c4ncc(Cl)cc34)ncc2F)C1` [Compound 122, (R)-prop-2-ynyl 3-((2-(5-chloro-1H-pyrrolo[2,3-b]pyridin-3-yl)-5-fluoropyrimidin-4-ylamino)methyl)piperidine-1-carboxylate], the IC50 in experiment [1] (setting [3]) is below 5 µM. Also, in experiment [2] (setting [4]), the EC50 was below 5 µM.
Turning to `Fc1cnc(-c2c[nH]c3ncc(Cl)cc23)nc1NC[C@H]1CCCN(c2ncccn2)C1` [Compound 124, (R)-2-(5-chloro-1H-pyrrolo[2,3-b]pyridin-3-yl)-5-fluoro-N-((1-(pyrimidin-2-yl)piperidin-3-yl)methyl)pyrimidin-4-amine], the IC50 in experiment [1] (setting [3]) was below 5 µM. Further, the EC50 in experiment [2] (setting [4]) was below 5 µM.
With `O=C(OCCF)N1CCC[C@H](CNc2nc(-c3c[nH]c4ncc(Cl)cc34)ncc2F)C1` [Compound 126, (R)-2-fluoroethyl 3-((2-(5-chloro-1H-pyrrolo[2,3-b]pyridin-3-yl)-5-fluoropyrimidin-4-ylamino)methyl)piperidine-1-carboxylate], the IC50 in experiment [1] (setting [3]) was below 5 µM. For the same compound, in experiment [2] (setting [4]), the concentration giving a half-maximal response (EC50) was below 5 µM.
`CC#CCOC(=O)N1CCC[C@H](CNc2nc(-c3c[nH]c4ncc(Cl)cc34)ncc2F)C1` [Compound 127, (R)-but-2-ynyl 3-((2-(5-chloro-1H-pyrrolo[2,3-b]pyridin-3-yl)-5-fluoropyrimidin-4-ylamino)methyl)piperidine-1-carboxylate]: in experiment [1], the IC50 was below 5 µM. For the same compound, in experiment [2], the EC50 was below 5 µM.
`CC(C)(C)NC(=O)N1CCC[C@H](CNc2nc(-c3c[nH]c4ncc(Cl)cc34)ncc2F)C1` [Compound 128, (R)—N-tert-butyl-3-((2-(5-chloro-1H-pyrrolo[2,3-b]pyridin-3-yl)-5-fluoropyrimidin-4-ylamino)methyl)piperidine-1-carboxamide]: the IC50 in experiment [1] (setting [3]) was below 5 µM. For the same compound, the concentration for a half-maximal effect (EC50) in experiment [2] (setting [4]) is below 5 µM.
As for `O=C(Nc1cccs1)N1CCC[C@H](CNc2nc(-c3c[nH]c4ncc(Cl)cc34)ncc2F)C1` [Compound 129, (R)-3-((2-(5-chloro-1H-pyrrolo[2,3-b]pyridin-3-yl)-5-fluoropyrimidin-4-ylamino)methyl)-N-(thiophen-2-yl)piperidine-1-carboxamide], the IC50 in experiment [1] (setting [3]) was below 5 µM. Further, in experiment [2] (setting [4]), the EC50 is below 5 µM.
Take `COC(=O)NC(=O)N1CCC[C@H](CNc2nc(-c3c[nH]c4ncc(Cl)cc34)ncc2F)C1` [Compound 131, (R)-methyl 3-((2-(5-chloro-1H-pyrrolo[2,3-b]pyridin-3-yl)-5-fluoropyrimidin-4-ylamino)methyl)piperidine-1-carbonylcarbamate]: in experiment [1] (setting [3]), the IC50 is below 5 µM. Moreover, the EC50 in experiment [2] (setting [4]) was below 5 µM.
With `O=C(c1cc(F)cc2c1OCOC2)N1CCC[C@H](CNc2nc(-c3c[nH]c4ncc(Cl)cc34)ncc2F)C1` [Compound 142, (R)-(3-((2-(5-chloro-1H-pyrrolo[2,3-b]pyridin-3-yl)-5-fluoropyrimidin-4-ylamino)methyl)piperidin-1-yl)(6-fluoro-4H-benzo[d][1,3]dioxin-8-yl)methanone], in experiment [1] (setting [3]), the IC50 is below 5 µM. The EC50 in experiment [2] (setting [4]) was below 5 µM.
Take `Cc1ccccc1C(=O)N1CCC[C@H](CNc2nc(-c3c[nH]c4ncc(Cl)cc34)ncc2F)C1` [Compound 143, (R)-(3-((2-(5-chloro-1H-pyrrolo[2,3-b]pyridin-3-yl)-5-fluoropyrimidin-4-ylamino)methyl)piperidin-1-yl)(o-tolyl)methanone]: the IC50 in experiment [1] (setting [3]) was below 5 µM. Also, the EC50 in experiment [2] (setting [4]) is below 5 µM.
With `O=C(c1ccc2c(c1)OCC2)N1CCC[C@H](CNc2nc(-c3c[nH]c4ncc(Cl)cc34)ncc2F)C1` [Compound 145, (R)-(3-((2-(5-chloro-1H-pyrrolo[2,3-b]pyridin-3-yl)-5-fluoropyrimidin-4-ylamino)methyl)piperidin-1-yl)(2,3-dihydrobenzofuran-6-yl)methanone], the IC50 in experiment [1] (setting [3]) is below 5 µM. For the same compound, the EC50 in experiment [2] (setting [4]) is below 5 µM.
`O=C(c1ccccc1C(F)(F)F)N1CCC[C@H](CNc2nc(-c3c[nH]c4ncc(Cl)cc34)ncc2F)C1` [Compound 146, (R)-(3-((2-(5-chloro-1H-pyrrolo[2,3-b]pyridin-3-yl)-5-fluoropyrimidin-4-ylamino)methyl)piperidin-1-yl)(2-(trifluoromethyl)phenyl)methanone]: in experiment [1] (setting [3]), the IC50 is below 5 µM. Besides, the EC50 in experiment [2] (setting [4]) is below 5 µM.
`O=C(c1ccc(Cl)cc1Cl)N1CCC[C@H](CNc2nc(-c3c[nH]c4ncc(Cl)cc34)ncc2F)C1` [Compound 147, (R)-(3-((2-(5-chloro-1H-pyrrolo[2,3-b]pyridin-3-yl)-5-fluoropyrimidin-4-ylamino)methyl)piperidin-1-yl)(2,4-dichlorophenyl)methanone]: the IC50 in experiment [1] (setting [3]) is below 5 µM. Besides, the EC50 in experiment [2] (setting [4]) was below 5 µM.
Take `COc1c(C)cccc1C(=O)N1CCC[C@H](CNc2nc(-c3c[nH]c4ncc(Cl)cc34)ncc2F)C1` [Compound 148, (R)-(3-((2-(5-chloro-1H-pyrrolo[2,3-b]pyridin-3-yl)-5-fluoropyrimidin-4-ylamino)methyl)piperidin-1-yl)(2-methoxy-3-methylphenyl)methanone]: in experiment [1] (setting [3]), the IC50 is below 5 µM. Besides, the EC50 in experiment [2] (setting [4]) was below 5 µM.
As for `O=C(c1cc(F)ccc1F)N1CCC[C@H](CNc2nc(-c3c[nH]c4ncc(Cl)cc34)ncc2F)C1` [Compound 151], in experiment [1] (setting [3]), the IC50 was below 5 µM. Further, the EC50 in experiment [2] (setting [4]) is below 5 µM.
On to `O=C(c1ccc(F)cc1F)N1CCC[C@H](CNc2nc(-c3c[nH]c4ncc(Cl)cc34)ncc2F)C1` [Compound 152, (R)-(3-((2-(5-chloro-1H-pyrrolo[2,3-b]pyridin-3-yl)-5-fluoropyrimidin-4-ylamino)methyl)piperidin-1-yl)(2,4-difluorophenyl)methanone], for which the IC50 in experiment [1] (setting [3]) is below 5 µM. The EC50 in experiment [2] (setting [4]) is below 5 µM.
Regarding `COc1ccc(C(=O)N2CCC[C@H](CNc3nc(-c4c[nH]c5ncc(Cl)cc45)ncc3F)C2)c(OC)c1` [Compound 154, (R)-(3-((2-(5-chloro-1H-pyrrolo[2,3-b]pyridin-3-yl)-5-fluoropyrimidin-4-ylamino)methyl)piperidin-1-yl)(2,4-dimethoxyphenyl)methanone], the IC50 in experiment [1] (setting [3]) was in the range of 5 to 20 µM. Besides, the EC50 in experiment [2] (setting [4]) was below 5 µM.
The like results for `Cc1cccc(C(=O)N2CCC[C@H](CNc3nc(-c4c[nH]c5ncc(Cl)cc45)ncc3F)C2)c1C` [Compound 157, (R)-(3-((2-(5-chloro-1H-pyrrolo[2,3-b]pyridin-3-yl)-5-fluoropyrimidin-4-ylamino)methyl)piperidin-1-yl)(2,3-dimethylphenyl)methanone] were, in that order, below 5 µM and below 5 µM.
For the compound `COCCOC(=O)N1CCCC[C@H]1CNc1nc(-c2c[nH]c3ncc(Cl)cc23)ncc1F` [Compound 161, (S)-2-methoxyethyl 2-((2-(5-chloro-1H-pyrrolo[2,3-b]pyridin-3-yl)-5-fluoropyrimidin-4-ylamino)methyl)piperidine-1-carboxylate], in experiment [1] (setting [3]), the IC50 was above 20 µM. Further, in experiment [2] (setting [4]), the EC50 is below 5 µM.
For the compound `O=C(OCCCl)N1CCCC[C@H]1CNc1nc(-c2c[nH]c3ncc(Cl)cc23)ncc1F` [Compound 163, (S)-2-chloroethyl 2-((2-(5-chloro-1H-pyrrolo[2,3-b]pyridin-3-yl)-5-fluoropyrimidin-4-ylamino)methyl)piperidine-1-carboxylate], the IC50 in experiment [1] (setting [3]) lay within 5 to 20 µM. In experiment [2] (setting [4]), the EC50 is below 5 µM.
Consider `C#CCOC(=O)N1CCCC[C@H]1CNc1nc(-c2c[nH]c3ncc(Cl)cc23)ncc1F` [Compound 164, (S)-prop-2-ynyl 2-((2-(5-chloro-1H-pyrrolo[2,3-b]pyridin-3-yl)-5-fluoropyrimidin-4-ylamino)methyl)piperidine-1-carboxylate], for which, in experiment [1] (setting [3]), the IC50 was above 20 µM. The EC50 in experiment [2] (setting [4]) is below 5 µM.
The like results for `COC(=O)N1CCCC[C@H]1CNc1nc(-c2c[nH]c3ncc(Cl)cc23)ncc1F` [Compound 166, (S)-methyl 2-((2-(5-chloro-1H-pyrrolo[2,3-b]pyridin-3-yl)-5-fluoropyrimidin-4-ylamino)methyl)piperidine-1-carboxylate] were, in that order, 5 to 20 µM and below 5 µM.
In the same order, the values of `CCOC(=O)N1CCCC[C@H]1CNc1nc(-c2c[nH]c3ncc(Cl)cc23)ncc1F` [Compound 171, (S)-ethyl 2-((2-(5-chloro-1H-pyrrolo[2,3-b]pyridin-3-yl)-5-fluoropyrimidin-4-ylamino)methyl)piperidine-1-carboxylate] are above 20 µM and 5 to 10 µM.

(Values after US8829007B2 (priority 2009, dated 2014).)
